pIC50: −log10 of the molar value.
Legend:
[1] = system: human SKM-1 acute myeloid leukemia cells; assay: SKM-1 antiproliferation cell-based assay (ATPlite); details: Homo sapiens, SKM-1, SKM-1 antiproliferation assay
Procedure, shortened: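 Log-phase cells in RPMI 1640/15% FBS were seeded at 34722 cells/mL and exposed for 4 days to nine-concentration DMSO serial dilutions in triplicate. Viability was read as ATP luminescence (ATPlite 1step), and IC50 values came from variable-slope non-linear regression.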

[2] = target: T1, human BRD4 bromodomain II (Homo sapiens, UniProt O60885); assay: Bromodomain binding assay (AlphaScreen), BRD4 BDII; details: BRD4 BDII AlphaScreen assay; read-out: BRD4 BD2 IC50
T1 construct: human BRD4 bromodomain II [based on Genbank NM_058243, residues 349-460]; host or cells: E. coli
Procedure, shortened: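 Compounds (10-point, 3-fold series) were preincubated 30 min at room temperature with E. coli-expressed N-terminal His6-tagged BRD4 BDII (residues 349-460) or BDI (residues 44-170) in 50 mM HEPES pH 7.5, 100 mM NaCl, 0.05% CHAPS, 0.1% BSA, 1% DMSO. Displacement of biotinylated tetra-acetylated H4 1-21 peptide was read by AlphaScreen; IC50 from curve fitting.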

Structure (SMILES) | GI50 [1] [nM] | pIC50 [2]
CC(C)N1CCCC12CCN(c1cc(-c3cc(F)cc(-c4ccc(-n5ccn(C)c5=O)c(Cl)c4)c3O)cnc1N(C)C)C2 (stereo not drawn) [Example 969, 1-(3-chloro-3′-(6-(dimethylamino)-5-(1-isopropyl-1,7-diazaspiro[4.4]nonan-7-yl)pyridin-3-yl)-5′-fluoro-2′-hydroxy-[1,1′-biphenyl]-4-yl)-3-methyl-1H-imidazol-2(3H)-one] | 30 to 300 | 8.00 to 9.00
Cc1cc(-c2ccc(-n3ccn(C)c3=O)c(Cl)c2)c(O)c(-c2cnc(N)c(N3CCC4(CCCN4C(C)C)C3)c2)n1 (stereo not drawn) [Example 978, 1-(4-(6′-amino-3-hydroxy-5′-(1-isopropyl-1,7-diazaspiro[4.4]nonan-7-yl)-6-methyl-[2,3′-bipyridin]-4-yl)-2-chlorophenyl)-3-methyl-1H-imidazol-2(3H)-one] | 0.3 to 30 | 9.00 to 11.00
Cn1ccn(-c2ccc(-c3ccnc(-c4cccc(N5CCN(C(C)(C)C)CC5)c4)c3O)cc2Cl)c1=O [Example 979, 1-(4-(2-(3-(4-(tert-butyl)piperazin-1-yl)phenyl)-3-hydroxypyridin-4-yl)-2-chlorophenyl)-3-methyl-1H-imidazol-2(3H)-one] | 0.3 to 30 | 8.00 to 9.00
CNc1ncc(-c2nc(C)cc(-c3ccc(-n4ccn(C)c4=O)c(Cl)c3)c2O)cc1N1CCC2(CCN2C(C)C)C1 (stereo not drawn) [Example 980, 1-(2-chloro-4-(3-hydroxy-5′-(1-isopropyl-1,6-diazaspiro[3.4]octan-6-yl)-6-methyl-6′-(methylamino)-[2,3′-bipyridin]-4-yl)phenyl)-3-methyl-1H-imidazol-2(3H)-one] | 0.3 to 30 | 8.00 to 9.00
Cc1cc(-c2ccc(-n3ccn(C)c3=O)c(Cl)c2)c(O)c(-c2cccc(N3CCC4(CCCN4C(C)C)C3)c2)n1 (stereo not drawn) [Example 981, 1-(2-chloro-4-(3-hydroxy-2-(3-(1-isopropyl-1,7-diazaspiro[4.4]nonan-7-yl)phenyl)-6-methylpyridin-4-yl)phenyl)-3-methyl-1H-imidazol-2(3H)-one] | 0.3 to 30 | 8.00 to 9.00
COc1ncc(-c2cc(F)cc(-c3ccc(-n4cc(C)n(C)c4=O)c(Cl)c3)c2O)cc1N1CCN(C(C)(C)C)CC1 [Example 982, 1-(3′-(5-(4-(tert-butyl)piperazin-1-yl)-6-methoxypyridin-3-yl)-3-chloro-5′-fluoro-2′-hydroxy-[1,1′-biphenyl]-4-yl)-3,4-dimethyl-1H-imidazol-2(3H)-one] | 30 to 300 | 8.00 to 9.00
Cc1cc(-c2ccc(-n3ccn(C)c3=O)c(Cl)c2)c(O)c(-c2cccc(N3CCC4(CCN4C(C)C)C3)c2)n1 (stereo not drawn) [Example 983, 1-(2-chloro-4-(3-hydroxy-2-(3-(1-isopropyl-1,6-diazaspiro[3.4]octan-6-yl)phenyl)-6-methylpyridin-4-yl)phenyl)-3-methyl-1H-imidazol-2(3H)-one] | 0.3 to 30 | 9.00 to 11.00
Cn1ccn(-c2ccc(-c3ccnc(-c4cnc(N)c(N5CCN(C(C)(C)C)CC5)c4)c3O)cc2Cl)c1=O [Example 984, 1-(4-(6′-amino-5′-(4-(tert-butyl)piperazin-1-yl)-3-hydroxy-[2,3′-bipyridin]-4-yl)-2-chlorophenyl)-3-methyl-1H-imidazol-2(3H)-one] | 0.3 to 30 | 7.00 to 8.00
CNc1ncc(-c2nc(C)cc(-c3ccc(-n4ccn(C)c4=O)c(Cl)c3)c2O)cc1N1CCC2(CCCN2C(C)C)C1 (stereo not drawn) [Example 985, 1-(2-chloro-4-(3-hydroxy-5′-(1-isopropyl-1,7-diazaspiro[4.4]nonan-7-yl)-6-methyl-6′-(methylamino)-[2,3′-bipyridin]-4-yl)phenyl)-3-methyl-1H-imidazol-2(3H)-one] | 0.3 to 30 | 8.00 to 9.00
CNc1ncc(-c2nccc(-c3ccc(-n4ccn(C)c4=O)c(Cl)c3)c2O)cc1N1CCN(C(C)(C)C)CC1 [Example 986, 1-(4-(5′-(4-(tert-butyl)piperazin-1-yl)-3-hydroxy-6′-(methylamino)-[2,3′-bipyridin]-4-yl)-2-chlorophenyl)-3-methyl-1H-imidazol-2(3H)-one] | 0.3 to 30 | 8.00 to 9.00

Now from value to compound:

GI50 [1] [nM] | pIC50 [2] | Structure (SMILES)
0.3 to 30 | 8.00 to 9.00 | CNc1ncc(-c2cc(F)cc(-c3ccc(-n4ccn(C)c4=O)c(Cl)c3)c2O)cc1N1CCC2(CCCN2C(C)C)C1 (stereo not drawn) [Example 970, 1-(3-chloro-5′-fluoro-2′-hydroxy-3′-(5-(1-isopropyl-1,7-diazaspiro[4.4]nonan-7-yl)-6-(methylamino)pyridin-3-yl)-[1,1′-biphenyl]-4-yl)-3-methyl-1H-imidazol-2(3H)-one]
0.3 to 30 | 9.00 to 11.00 | Cc1cc(-c2ccc(-n3ccn(C)c3=O)c(Cl)c2)c(O)c(-c2cc(N3CCN(C(C)(C)C)CC3)c3nccn3c2)n1 [Example 971, 1-(4-(2-(8-(4-(tert-butyl)piperazin-1-yl)imidazo[1,2-a]pyridin-6-yl)-3-hydroxy-6-methylpyridin-4-yl)-2-chlorophenyl)-3-methyl-1H-imidazol-2(3H)-one]
0.3 to 30 | 9.00 to 11.00 | COc1ncc(-c2nc(C)cc(-c3ccc(-n4ccn(C)c4=O)c(Cl)c3)c2O)cc1N1CCC2(CCCN2C(C)C)C1 (stereo not drawn) [Example 972, 1-(2-chloro-4-(3-hydroxy-5′-(1-isopropyl-1,7-diazaspiro[4.4]nonan-7-yl)-6′-methoxy-6-methyl-[2,3′-bipyridin]-4-yl)phenyl)-3-methyl-1H-imidazol-2(3H)-one]
0.3 to 30 | 9.00 to 11.00 | Cc1cc(-c2ccc(-n3ccn(C)c3=O)c(Cl)c2)c(O)c(-c2cnc(C)c(N3CCC4(CCCN4C(C)C)C3)c2)n1 (stereo not drawn) [Example 973, 1-(2-chloro-4-(3-hydroxy-5′-(1-isopropyl-1,7-diazaspiro[4.4]nonan-7-yl)-6,6′-dimethyl-[2,3′-bipyridin]-4-yl)phenyl)-3-methyl-1H-imidazol-2(3H)-one]
0.3 to 30 | 9.00 to 11.00 | Cc1cc(-c2ccc(-n3ccn(C)c3=O)c(Cl)c2)c(O)c(-c2cnc(C)c(N3CCC4(CCN4C(C)C)C3)c2)n1 (stereo not drawn) [Example 974, 1-(2-chloro-4-(3-hydroxy-5′-(1-isopropyl-1,6-diazaspiro[3.4]octan-6-yl)-6,6′-dimethyl-[2,3′-bipyridin]-4-yl)phenyl)-3-methyl-1H-imidazol-2(3H)-one]
0.3 to 30 | 8.00 to 9.00 | Cc1cc(-c2ccc(-n3ccn(C)c3=O)c(Cl)c2)c(O)c(-c2cnc(N)c(N3CCC4(CCN4C(C)C)C3)c2)n1 (stereo not drawn) [Example 975, 1-(4-(6′-amino-3-hydroxy-5′-(1-isopropyl-1,6-diazaspiro[3.4]octan-6-yl)-6-methyl-[2,3′-bipyridin]-4-yl)-2-chlorophenyl)-3-methyl-1H-imidazol-2(3H)-one]
0.3 to 30 | 8.00 to 9.00 | Cn1ccn(-c2ccc(-c3ccnc(-c4cccc(N5CCN(C(C)(C)C)CC5)c4)c3N)cc2Cl)c1=O [Example 976, 1-(4-(3-Amino-2-(3-(4-(tert-butyl)piperazin-1-yl)phenyl)pyridin-4-yl)-2-chlorophenyl)-3-methyl-1H-imidazol-2(3H)-one]
0.3 to 30 | 9.00 to 11.00 | COc1ncc(-c2nc(C)cc(-c3ccc(-n4ccn(C)c4=O)c(Cl)c3)c2O)cc1N1CCC2(CCN2C(C)C)C1 (stereo not drawn) [Example 977, 1-(2-chloro-4-(3-hydroxy-5′-(1-isopropyl-1,6-diazaspiro[3.4]octan-6-yl)-6′-methoxy-6-methyl-[2,3′-bipyridin]-4-yl)phenyl)-3-methyl-1H-imidazol-2(3H)-one]

— patent US20250179059A1 (The Regents of the University of California, priority 2021, published 2025)
